In article PMC11855207, “Synthesis and Evaluation of Aromatic A-Ring 23-Oxavitamin D3 Analogues as Hedgehog Pathway Inhibitors” (International Journal of Molecular Sciences, 2025):
Read-outs that look alike come from different tables or passages of the source.

Experiments:
[1] = tested on: Hh signaling pathway (Gli1 mRNA) in C3H10T1/2 cells; experiment: Gli1 mRNA down-regulation (qPCR) in OHC-stimulated C3H10T1/2 cells; type: cell-based, mouse; conditions: for mrna remaining at 5 µM / IC50: Mus musculus; for mrna remaining at 5 µM: C3H 10T1/2, 5 μM with OHCs 5 μM; for mrna remaining at 5 µM / Gli1 mRNA (%): 24 h, relative Gli1 mRNA levels compared to OHCs (set to 100%); for IC50: C3H 10T1/2, mean ± SEM; for Gli1 mRNA (%): 5 μM with OHCs 5 μM
Method: (§1) The VD3 analogues were initially assessed for their ability to inhibit the Hh signaling pathway by evaluating the effects on endogenous Gli1 mRNA levels at a single concentration (5 μM) co-administration of oxysterols (OHCs; 20(S)-hydroxycholesterol, 22(S)-hydroxycholesterol at 5 μM each) in C3H10T1/2 cells, an Hh-dependent mouse embryonic fibroblast (MEF) cell line. […] VD3 derivatives may retain some VDR agonistic activity, thereby compromising the selectivity of these compounds as Hh inhibitors. The selectivity profile of the analogues for Hh inhibition, compared to typical VDR activation, was assessed by measuring the ability to up-regulate Cyp24a1 mRNA levels in the same cellular system and by evaluating their binding to VDR using a fluorescence polarization-based competition assay (Table 1).
(§2) Mouse embryonic fibroblast cell line (C3H10T1/2, wild-type, VDR^−/−, SuFu^−/−), mouse keratinocyte cell line (ASZ001), and human embryonic kidney cell line (HEK293T) were purchased from China Center for Type Culture Collection (CCTCC; Wuhan, Hubei, China) and cultured under standard protocols. […] Therefore, they can be used to assess the inhibitory strength of the Hh signaling and the selectivity of the VDR signaling. VDR^−/− and SuFu^−/− C3H10T1/2 cells were used to study compounds selectivity for Hh and VDR signaling. If compounds regulate Hh signaling independently of VDR, their ability to down-regulate Gli1 mRNA expression should be abolished in SuFu^−/− C3H10T1/2 cells. […] The loss of Ptch in ASZ001 cells […], so down-regulating Gli1 reflects direct Smo inhibition by the compound. Comparing results from ASZ001 and C3H10T1/2 cells highlights the compound’s inhibition of the Hh signaling pathway.
(§3) RNA isolation in C3H10T1/2 cells was performed in 24-well plates (50,000 cells plated; TRIZOL Reagent); in ASZ001, cells were done in 35 mm dishes (300,000 cells plated; TRIZOL Reagent). cDNA synthesis was performed utilizing the SweScript All-in-One RT SuperMix Kit (Servicebio, Wuhan, China) per the manufacturer’s instructions on a BioRad S1000 Thermal Cycler (Hercules, CA, USA). qPCR (Hh signaling pathway and VDR) analysis of target genes was performed on Step OnePlus (ABI) using the Taqman Gene Expression Assays: mouse ActB (Mm00607939_s1), mouse GLI1 (Mm00494645_ml), mouse PTCH1(Mm00436026_m1), and mouse CYP24A1 (Mm00487244_ml). Relative gene expression levels were computed via the ΔΔCt method. ActinB mRNA expression levels of all samples were normalized to DMSO control ActinB mRNA levels (vehicle; set at 1.00). […] The mRNA expression levels from drug-treated samples were compared to OHCs levels (Gli1, PTCH) and DMSO control (Cyp24A1).

recombinant VDR = target: T1, recombinant VDR (Homo sapiens, UniProt P11473); experiment: VDR binding, fluorescence polarization-based competition assay (PolarScreen VDR Competitor Assay Red); conditions: compounds evaluated at 100 μM
T1 construct: purchased Thermo Fisher Scientific
T1 sequence (P11473 1-427): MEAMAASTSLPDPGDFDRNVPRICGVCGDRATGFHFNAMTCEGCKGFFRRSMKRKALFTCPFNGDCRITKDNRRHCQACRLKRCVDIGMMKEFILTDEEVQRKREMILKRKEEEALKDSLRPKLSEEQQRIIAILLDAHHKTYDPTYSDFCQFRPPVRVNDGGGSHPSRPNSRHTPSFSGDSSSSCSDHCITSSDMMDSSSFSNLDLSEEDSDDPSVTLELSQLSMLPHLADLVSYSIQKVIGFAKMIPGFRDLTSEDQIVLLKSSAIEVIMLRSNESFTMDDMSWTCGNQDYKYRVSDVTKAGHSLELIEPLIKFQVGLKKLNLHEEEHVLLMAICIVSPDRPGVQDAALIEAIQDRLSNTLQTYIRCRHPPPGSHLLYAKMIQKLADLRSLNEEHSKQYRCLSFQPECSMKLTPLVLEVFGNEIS
Method: as §1
VDR binding assay was performed using a PolarScreen VDR Competitor Assay Red kit (Thermo Fisher Scientific, Carlsbad, CA, USA) per the manufacturer’s instructions. Compounds were evaluated at 100 μM in 2.5% final DMSO in triplicate. Calcitriol is utilized as a positive control for VDR binding.

[2] = tested on: VDR signaling (Cyp24A1 mRNA) in C3H10T1/2 cells; experiment: Cyp24A1 mRNA up-regulation (qPCR) in C3H10T1/2 cells; type: cell-based, mouse; conditions: 24 h, relative to DMSO (set to 1.0); for fold induction at 5 µM: Mus musculus, C3H 10T1/2, 5 μM with OHCs 5 μM; for Cyp24A1 mRNA (fold up-regulation): 5 μM with OHCs 5 μM
Method: as §1, §2, §3

[3] = tested on: Hh signaling pathway (Gli1 mRNA) in ASZ001 cells; experiment: Gli1 mRNA down-regulation (qPCR) in ASZ001 cells; type: cell-based; conditions: Mus musculus
Method: Mouse embryonic fibroblast cell line (C3H10T1/2, wild-type, VDR^−/−, SuFu^−/−), mouse keratinocyte cell line (ASZ001), and human embryonic kidney cell line (HEK293T) were purchased from China Center for Type Culture Collection (CCTCC; Wuhan, Hubei, China) and cultured under standard protocols [16]. […] The loss of Ptch in ASZ001 cells prevents Smo inhibition, so down-regulating Gli1 reflects direct Smo inhibition by the compound.
(§4) RNA isolation in C3H10T1/2 cells was performed in 24-well plates (50,000 cells plated; TRIZOL Reagent); in ASZ001, cells were done in 35 mm dishes (300,000 cells plated; TRIZOL Reagent). cDNA synthesis was performed utilizing the SweScript All-in-One RT SuperMix Kit (Servicebio, Wuhan, China) per the manufacturer’s instructions on a BioRad S1000 Thermal Cycler (Hercules, CA, USA). qPCR (Hh signaling pathway and VDR) analysis of target genes was performed on Step OnePlus (ABI) using the Taqman Gene Expression Assays [18, 29]: mouse ActB (Mm00607939_s1), mouse GLI1 (Mm00494645_ml), mouse PTCH1(Mm00436026_m1), and mouse CYP24A1 (Mm00487244_ml). Relative gene expression levels were computed via the ΔΔCt method. ActinB mRNA expression levels of all samples were normalized to DMSO control ActinB mRNA levels (vehicle; set at 1.00). […] The mRNA expression levels from drug-treated samples were compared to OHCs levels (Gli1, PTCH) and DMSO control (Cyp24A1).

ASZ001 cells = experiment: Anti-proliferation (MTS) in ASZ001 cells; type: cell-based; conditions: Mus musculus, 48 h incubation, mean ± SEM
[4] = tested on: VDR signaling (Cyp24A1 mRNA) in ASZ001 cells; experiment: Cyp24A1 mRNA expression (qPCR) in ASZ001 cells; type: cell-based; conditions: Mus musculus, read-out: Cyp24A1 mRNA levels relative to DMSO
Method: as §4

[5] = tested on: primary Ptch-CKO MB cells; experiment: Anti-proliferation (MTS) in primary Ptch-CKO MB cells; type: cell-based; conditions: Mus musculus, 48 h incubation, mean ± SEM
Method: Ptch-CKO MB cells, derived from a conditional Patched knockout mouse, lack Ptch-like ASZ001 cells. Consequently, the inhibitory effect of the compound on Ptch-CKO MB cells directly reflects its suppression of the canonical Hh signaling pathway. Cell viability was assessed by MTS proliferation assay kit (Promega, Madison, WI, USA) according to the manufacturer’s protocol. Culture conditions and experimental protocols to determine GI50 values in the primary murine Ptch-CKO MB cells were as previously described.

[6] = tested on: Hh signaling pathway (Ptch mRNA) in C3H10T1/2 cells; experiment: Ptch mRNA down-regulation (qPCR) in C3H10T1/2 cells; type: cell-based; conditions: Mus musculus
Method: as §4

Row | SMILES | mrna remaining at 5 µM [1] | VDR Binding (recombinant VDR) | fold induction at 5 µM [2] | other results
1 | CC(C)COC[C@@H](C)[C@H]1CC[C@H]2[C@@H](OC(=O)c3ccc([N+](=O)[O-])cc3)CCC[C@]12C [Compound 3b] | 74.2 ± 4.1% | >100 µM | 24.6 ± 2.1 | 
2 | COc1cccc(C(=O)O[C@H]2CCC[C@]3(C)[C@@H]([C@H](C)COCC(C)C)CC[C@@H]23)c1 [Compound 3d] | 102 ± 8.4% | >100 µM | 13.5 ± 1.1 | 
3 | C[C@H](COCC(C)(C)O)[C@H]1CC[C@H]2[C@@H](OC(=O)c3ccc([N+](=O)[O-])cc3)CCC[C@]12C [Compound 4b] | 54.6 ± 3.8% | >100 µM | 92.7 ± 15.9 | 
4 | CC(C)COC[C@@H](C)[C@H]1CC[C@H]2[C@@H](OC(=O)c3cccc(O)c3)CCC[C@]12C [Compound 3i] | 6.1 ± 1.1% | >100 µM | 13.8 ± 1.4 | IC50 [1]: 2.3 ± 0.7 µM; IC50 ([3]; ASZ001 cells, mean ± SEM, read-out: Gli1 IC50): 5.2 ± 0.3 µM; GI50 (ASZ001 cells): > 20 µM; fold induction at 5 µM ([4]; ASZ001 cells, 5 μM, 24 h, DMSO set to 1.0): 2.3 ± 0.2; GI50 [5]: 8.1 ± 1.1 µM; IC50 ([6]; C3H 10T1/2, C3H10T1/2 cells, mean ± SEM, read-out: Ptch IC50): 5.6 ± 0.6 µM
5 | CC(C)COC[C@@H](C)[C@H]1CC[C@H]2[C@@H](OC(=O)c3cc([N+](=O)[O-])cc([N+](=O)[O-])c3)CCC[C@]12C [Compound 3g] | 32.1 ± 2.4% | >100 µM | 9.8 ± 1.4 | 
6 | C[C@H](COCC(C)(C)O)[C@H]1CC[C@H]2[C@@H](OC(=O)c3ccc(Cl)cc3)CCC[C@]12C [Compound 4e] | 26.1 ± 2.1% | >100 µM | 105 ± 21.4 | 
7 | C[C@H](COCC(C)(C)O)[C@H]1CC[C@H]2[C@@H](OC(=O)c3ccc(O)cc3)CCC[C@]12C [Compound 4j] | 4.6 ± 0.8% | >100 µM | 127 ± 20.5 | GI50 (ASZ001 cells): > 20 µM; GI50 [5]: > 10 µM
8 | C[C@H](COCC(C)(C)O)[C@H]1CC[C@H]2[C@@H](OC(=O)c3cc([N+](=O)[O-])cc([N+](=O)[O-])c3)CCC[C@]12C [Compound 4f] | 30.7 ± 2.5% | >100 µM | 131 ± 19.7 | 
9 | CC(C)COC[C@@H](C)[C@H]1CC[C@H]2[C@@H](OC(=O)c3ccc(F)cc3)CCC[C@]12C [Compound 3f] | 45.4 ± 3.1% | >100 µM | 46.5 ± 3.4 | 
10 | C[C@H](COCC(C)(C)O)[C@H]1CC[C@H]2[C@@H](OC(=O)c3ccccc3)CCC[C@]12C [Compound 4a] | 43.8 ± 3.6% | >100 µM | 94.6 ± 12.7 | 
11 | C=C1CC[C@H](O)C/C1=C/C=C1\CCC[C@]2(C)[C@@H]([C@H](C)CCCC(C)C)CC[C@@H]12 [VD3, Vitamin D3] | 32.5 ± 0.6% | >100 µM | 8350 ± 102 | IC50 [1]: 4.2 ± 0.4 µM; IC50 ([3]; ASZ001, read-out: Gli1 IC50): 2.1 ± 0.2 µM; GI50 (ASZ001 cells): 15.6 ± 1.7 µM; fold induction at 5 µM ([4]; ASZ001, 24 h): 821 ± 26.3; GI50 [5]: 6.4 ± 0.7 µM; IC50 ([6]; C3H 10T1/2, read-out: Ptch IC50): 3.3 ± 0.4 µM
12 | COc1cccc(C(=O)O[C@H]2CCC[C@]3(C)[C@@H]([C@H](C)COCC(C)(C)O)CC[C@@H]23)c1 [Compound 4d] | 62.3 ± 4.8% | >100 µM | 86.8 ± 11.3 | 
13 | COc1ccc(C(=O)O[C@H]2CCC[C@]3(C)[C@@H]([C@H](C)COCC(C)C)CC[C@@H]23)cc1 [Compound 3c] | 89.6 ± 4.3% | >100 µM | 36.7 ± 2.9 | 
14 | C[C@H](COCC(C)(C)O)[C@H]1CC[C@H]2[C@@H](O)CCC[C@]12C [Compound 2b] | 42.7 ± 3.4% | >100 µM | 76.8 ± 6.3 | Gli1 mRNA (%) [1]: comparable to that of VD3; Cyp24A1 mRNA (fold up-regulation) [2]: weak
15 | CC(C)COC[C@@H](C)[C@H]1CC[C@H]2[C@@H](OC(=O)c3ccc(Cl)cc3)CCC[C@]12C [Compound 3e] | 23.5 ± 2.7% | >100 µM | 67.8 ± 4.8 | 
16 | COc1ccc(C(=O)O[C@H]2CCC[C@]3(C)[C@@H]([C@H](C)COCC(C)(C)O)CC[C@@H]23)cc1 [Compound 4c] | 76.5 ± 7.5% | >100 µM | 120 ± 18.6 | 
17 | CC(C)COC[C@@H](C)[C@H]1CC[C@H]2[C@@H](O)CCC[C@]12C [Compound 2a] | 36.8 ± 3.6% | >100 µM | 1.6 ± 0.3 | Gli1 mRNA (%) [1]: comparable to that of VD3; Cyp24A1 mRNA (fold up-regulation) [2]: weak
18 | CC(C)COC[C@@H](C)[C@H]1CC[C@H]2[C@@H](OC(=O)c3ccccc3)CCC[C@]12C [Compound 3a] | 56.8 ± 3.5% | >100 µM | 35.7 ± 2.6 | 
